# Measurements reported in patent publication US20110314564A1, “ENZYMES AND METHODS FOR HYDROLYSING PHENYLUREAS, CARBAMATES AND ORGANOPHOSPHATES” (priority 2008, published 2011).
# What was measured:
# PuhA = PuhA (Arthrobacter globiformis, UniProt B8R4L9); assay: Hydrolysis of phenylurea, carbamate and organophosphate substrates by purified PuhA (LCMS / FBBS / A400 assays)
# PuhB = PuhB (Mycolicibacterium brisbanense, UniProt B8R4K0); assay: Hydrolysis of phenylurea, carbamate and organophosphate substrates by purified PuhB (LCMS / FBBS / A400 assays)
# Sequence of PuhB (B8R4K0 entry or part of it): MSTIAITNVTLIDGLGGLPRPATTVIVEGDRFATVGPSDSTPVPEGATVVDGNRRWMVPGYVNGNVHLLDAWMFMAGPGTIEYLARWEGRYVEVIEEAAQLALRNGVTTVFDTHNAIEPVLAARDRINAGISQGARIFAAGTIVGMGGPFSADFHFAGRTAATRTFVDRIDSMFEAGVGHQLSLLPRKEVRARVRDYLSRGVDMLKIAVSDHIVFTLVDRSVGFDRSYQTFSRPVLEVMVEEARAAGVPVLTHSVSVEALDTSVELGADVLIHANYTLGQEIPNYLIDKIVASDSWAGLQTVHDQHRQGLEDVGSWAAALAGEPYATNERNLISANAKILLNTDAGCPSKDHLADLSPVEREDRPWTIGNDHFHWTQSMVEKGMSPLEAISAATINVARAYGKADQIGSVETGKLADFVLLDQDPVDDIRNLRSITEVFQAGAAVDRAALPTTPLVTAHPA
# [1] = test system: CN(C)C(=O)Nc1ccc(Cl)c(Cl)c1; assay: purified protein, by the assay type; conditions: pH 6.9, 25.0 °C
# [2] = Activity of native PuhA and PuhB at each purification step (DCA formation); format: biochemical
# Source text: (§1) Protein concentration was estimated using the Bio-rad protein assay (Bradford), with bovine serum albumin used as standard. Protein purity was monitored using sodium dodecyl sulphate-polyacrylamide gel electrophoresis (SDS-PAGE) stained with Coomassie brilliant blue. Where PuhA and B concentrations were estimated in semi purified extracts, SDS-PAGE gels were scanned using Labscan v5 (Amersham Biosciences) and band densitometry performed with Total lab TL100 (Nonlinear dynamics). Talon cobalt resin (BD Biosciences) was used for the purification of hexa-histidine tagged protein. Untagged protein was purified by ammonium sulfate (AS) precipitiation followed by hydrophobic interaction chromatography (HIC; Phenylsepharose), anion exchange chromatography (AEX; Macro Q) and size exclusion chromatography (SEC; Superose 6 or Sephadex 200). All columns were purchased from GE Healthcare. The hydrophobic interaction column was equilibrated with Tris (pH 8)/1 M ammonium sulfate and bound protein was then eluted with Tris (pH 8) over 400 mL. Protein was bound to the anion exchange column with Tris (pH 8) and eluted with a gradient of Tris (pH 8)/1 M NaCl over 500 mL. The buffer was exchanged to 25 mM HEPES/50 mM KCl (pH 8) during SEC and the protein was stable in this buffer at 4° C. for several weeks. The oligomeric structure was estimated with a Superose 6 size exclusion column calibrated with the following protein standards (kDa): thyroglobulin (669), ferritin (440), catalase (232) and aldolase (158). Standard tryptic peptide mass fingerprinting was used to confirm the identity of proteins excised from polyacrylamide gels by liquid chromatography electro spray ionisation mass spectroscopy/mass spectroscopy (LC ESI MS/MS) ion trap following the method of Campbell et al. (2008).
# [3] = Activity of PuhA and PuhB expressed in M. smegmatis at each purification step (PNP release); format: biochemical
# Description: (§2) Pwo polymerase (Roche) and restriction enzymes NdeI, BamHI and HindIII (Fermentas) were used following manufacturers' protocols. Electro-competent E. coli strains JM109 (Promega) were utilised for transformation of ligation reactions (using Promega ligase). Protein expressions in E. coli were inoculated (1% v/v) with an overnight seed culture in LB and then incubated with shaking at 20° C. for 11 hours followed by induction with 0.1 mM isopropyl-β-D-thiogalactopyranoside (IPTG) for 3 hours. M. smegmatis expressions were amended with 0.05% tween 80 and grown in LB at 28° C. for 2-4 days with no induction. Clarified cell-free extracts were obtained by resuspending the bacteria in 25 mM Tris (pH 8) followed by 3 passes through a French pressure cell (Thermo) and centrifugation at 27,000 g (Beckman Avanti).
# as §1
# [4] = Diuron hydrolase activity in the soluble fraction of recombinant expression hosts; format: biochemical
# Source text: PuhA and PuhB were amplified as N-hexa-histidine tagged fusions from pET14b (Novagen) in E. coli rosetta II cells (Novagen) and pMV261 (Stover et al., 1991) in M. smegmatis mc2. Protein without hexa-histidine tags was later expressed in M. smegmatis mc2. The PCR primers used in these cloning procedures are noted in Table 2 (SEQ ID NOs 5 to 13).
# as §2
# [5] = Thermal stability: residual activity after 10 minutes pre-incubation, Boltzmann fit; format: biochemical
# Description: (§3) The influence of solvents (acetonitrile and methanol) was examined by using 7 concentrations from 0.4-18.2% over 1 hour duplicate assays with 77 μM diuron and monitored by LCMS. The effect of temperature on the activity of the enzymes was determined in two ways: firstly, the temperature at which reaction was catalysed was controlled at 12 temperatures ranging from 2-60° C. with 154 μM diuron; secondly, enzyme was preincubated at 6 temperatures from 30-55° C. for 10 minutes prior to 1 hour assays at 25° C. The residual activity data was obtained by LCMS and fitted to the Boltzmann function (eq 1)
# (§4) A bell shaped model (eq 2)
# [6] = Stability in the presence of the solvents acetonitrile and methanol; format: biochemical; conditions: 1-18% v/v solvent
# Description: as §3
# [7] = pH dependence of kcat, kcat/Km and Km with diuron in constant ionic strength buffer; format: biochemical
# Source text: as §4
# (§5) was used to fit an activity y, either log(kcat) and log(kcat/Km) vs. pH. (y)^max is the plateau value and pKa^1 and pKa^2 are the apparent pKa values for the acidic and basic groups, respectively. Equations were fitted to the data using Kaleidagraph v3.6 (Synergy Software). The substrate pKa values were obtained via an online database www.syrres.com/esc/physdemo.htm (Syracuse Research Corporation).
# [8] = Bronsted plots (pKa of leaving group vs log kcat) for N-dimethyl phenylureas; format: biochemical; conditions: slope between pKa 4-5
# Source text: as §5
molecule,measurement,setting,value
CCN(CC)C(=O)SCc1ccc(Cl)cc1 [thiobencarb],hydrolysis / turnover of the substrate (in words),PuhA; PuhA,neither enzyme catalysed the hydrolysis
same,hydrolysis / turnover of the substrate (in words),PuhB; PuhB,neither enzyme catalysed the hydrolysis
CNC(=O)N(C)c1nnc(C(C)(C)C)s1 [tebuthiuron],hydrolysis / turnover of the substrate (in words),PuhA; PuhA,no detectable hydrolysis
same,hydrolysis / turnover of the substrate (in words),PuhB; PuhB,no detectable hydrolysis
O=C(Nc1ccccc1)Nc1cnns1 [thidiazuron],hydrolysis / turnover of the substrate (in words),PuhA; PuhA,no detectable hydrolysis
same,hydrolysis / turnover of the substrate (in words),PuhB; PuhB,no detectable hydrolysis
PuhB (Mycolicibacterium brisbanense),Km,[1]; other: PuhB,11.0 µM
"CON(C)C(=O)Oc1ccc(Cl)c(Cl)c1 [carbamate analogue of linuron, 3,4-dichlorophenyl N-methoxy-N-methylcarbamate]",hydrolysis / turnover of the substrate (in words),PuhA; PuhA,as efficiently as the phenylurea
same,hydrolysis / turnover of the substrate (in words),PuhB; PuhB,as efficiently as the phenylurea
Cc1nc(N(C)C)nc(OC(=O)N(C)C)c1C [pirimicarb],"catalytic efficiency, fold lower than diuron",PuhA; PuhA,10^4 fold
same,hydrolysis / turnover of the substrate (in words),PuhA; PuhA,slowly turned over
same,"catalytic efficiency, fold lower than diuron",PuhB; PuhB,10^3 fold
same,hydrolysis / turnover of the substrate (in words),PuhB; PuhB,slowly turned over
"CN(C)C(=O)Oc1ccc([N+](=O)[O-])cc1 [DMNPC, N-dimethyl, O-4-nitrophenyl carbamate]",hydrolysis / turnover of the substrate (in words),PuhA; PuhA,turned over at a higher efficiency than poor phenylurea substrates
same,hydrolysis / turnover of the substrate (in words),PuhB; PuhB,turned over at a higher efficiency than poor phenylurea substrates
CON(C)C(=O)Nc1ccc(Cl)c(Cl)c1 [linuron],"turnover rate (kcat), fold higher than that of diuron",PuhA; enzyme not given,~9 fold
same,"turnover rate (kcat), fold higher than that of diuron",PuhB; enzyme not given,~9 fold
PuhA (Arthrobacter globiformis),Km,[1]; other: PuhA,55.0 µM
CC1CCCCC1NC(=O)Nc1ccccc1 (stereo not drawn) [siduron],hydrolysis / turnover of the substrate (in words),PuhA; PuhA,no detectable hydrolysis
same,hydrolysis / turnover of the substrate (in words),PuhB; PuhB,no detectable hydrolysis
CNC(=O)Oc1cccc2ccccc12 [carbaryl],hydrolysis / turnover of the substrate (in words),PuhA; PuhA,neither enzyme catalysed the hydrolysis
same,hydrolysis / turnover of the substrate (in words),PuhB; PuhB,neither enzyme catalysed the hydrolysis
CCOP(=O)(OCC)Oc1ccc([N+](=O)[O-])cc1 [paraoxon ethyl],hydrolysis / turnover of the substrate (in words),PuhA; PuhA,only slightly lower than isoproturon
same,hydrolysis / turnover of the substrate (in words),"PuhA; PuhA, listed as ethyl paraoxon",turned over by both proteins
same,hydrolysis / turnover of the substrate (in words),PuhB; PuhB,only slightly lower than isoproturon
same,hydrolysis / turnover of the substrate (in words),"PuhB; PuhB, listed as ethyl paraoxon",turned over by both proteins
CCCCN(C)C(=O)Nc1ccc(Cl)c(Cl)c1 [neburon],hydrolysis / turnover of the substrate (in words),PuhA; PuhA,no detectable hydrolysis
same,hydrolysis / turnover of the substrate (in words),PuhB; PuhB,no detectable hydrolysis
CN(C)C(=O)Nc1ccc(-n2nc(C(C)(C)C)oc2=O)c(Cl)c1 [dimefuron],hydrolysis / turnover of the substrate (in words),PuhA; PuhA,no detectable hydrolysis
same,hydrolysis / turnover of the substrate (in words),PuhB; PuhB,no detectable hydrolysis
"PuhA: phenylurea hydrolase from A. globiformis D47, amino acid sequence SEQ ID NO:3 (protein, Arthrobacter globiformis D47) MTTTAITDITLIDGRGGAPERGVTVLVDEDRFSAIGPTATTPIPDGARVVGGAGRWMVPGYVNGNVHLLDAWMFMVGPGTIEYLARWEGRYVEVIEEAAQLVLRNGVTTVFDTYNAIEPVLAARDRINAGTSAGARIFAAGTIVGLGGPFSADFHFIGQQAASRTFVNRIDAMFEAGVGHQLSLLPRNEVRSRVRDYLARGVDMLKIAVSDHIVFTVGFDRSCQTFSRPVLEVMFEEARAAGVPVLTHSVSVEALDTSVDLGADVLIHANYTLGQHIPDYLIDKIAASDSYAGLQTVHHEHREGLERVGSWAATLAGEPYASNERALIRAKAKILMNTDAGCPSKDHLADLSPAEREDRPWTIGGDHFHWTQSIVEKGMTPLEAISAATLNVARAYGKDADIGSVETGKLADFVLLDADPTADIRHLRSISAVYQAGVAVDRGALPTTPLVTAHPA",Activity (nmol DCA/μg/hour),[2]; AS (ammonium sulfate),0.18 nmol DCA/μg/hour
same,Activity (nmol DCA/μg/hour),[2]; CFE (cell free extract),0.05 nmol DCA/μg/hour
same,Activity (nmol DCA/μg/hour),[2]; HIC,0.73 nmol DCA/μg/hour
same,Estimated specific activity (mol/mol/min),[2]; HIC,10.20 mol/mol/min
same,Activity (nmol DCA/μg/hour),[2]; SEC,2.79 nmol DCA/μg/hour
same,Estimated specific activity (mol/mol/min),[2]; SEC,7.02 mol/mol/min
same,Activity (mM PNP/mg/min),[3]; AEX,6.2 mM PNP/mg/min
same,Activity (mM PNP/mg/min),[3]; CFE,0.3 mM PNP/mg/min
same,Activity (mM PNP/mg/min),[3]; HIC,4.3 mM PNP/mg/min
same,Activity (mM PNP/mg/min),[3]; SEC,7.8 mM PNP/mg/min
same,"specific activity in the soluble fraction, fold lower compared to the native expression",[4]; expressed in E. coli Rosetta 2 DE3 from pET14b,~10 fold
same,activity in the soluble fraction (in words),[4]; expressed in M. smegmatis from pMV261,comparable to that measured in the native expressions
same,residual activity after incubation (in words),[5]; 10 minutes incubation at 40° C.,retaining significant activity
same,Tm indicating 50% activity retained,"[5]; 10 minutes pre-incubation, then 1 hour assay at 25° C.",46.6 °C
same,activity in the presence of methanol and acetonitrile (in words),[6],significantly inhibited
same,pKe1,[7]; acidic shoulder,4.2
same,pKes1,[7]; acidic shoulder,5.1
same,pKe2,[7]; basic shoulder,8.9
same,pKes2,[7]; basic shoulder,10.2
same,pKe of the decrease in catalytic efficiency,[7]; basic side,~10
same,βlg,[8],−1.6
